Patent US7390819B2 (Altana Pharma AG, priority 2003, dated 2008)

What follows are molecules tested against T1, human inducible NO-synthase (Homo sapiens, UniProt P35228) (assay: Measurement of inducible NO-synthase activity ([3H]arginine conversion)). Settings: crude cytosolic fraction containing human inducible NO-synthase; 0.1 μM arginine; 45 to 60 min at 37° C.; read-out: Inhibition of INOS activity [measured as −logIC50 (mol/l)] (converted).
T1 construct: host or cells: crude cytosolic fraction
T1 sequence (P35228 whole entry): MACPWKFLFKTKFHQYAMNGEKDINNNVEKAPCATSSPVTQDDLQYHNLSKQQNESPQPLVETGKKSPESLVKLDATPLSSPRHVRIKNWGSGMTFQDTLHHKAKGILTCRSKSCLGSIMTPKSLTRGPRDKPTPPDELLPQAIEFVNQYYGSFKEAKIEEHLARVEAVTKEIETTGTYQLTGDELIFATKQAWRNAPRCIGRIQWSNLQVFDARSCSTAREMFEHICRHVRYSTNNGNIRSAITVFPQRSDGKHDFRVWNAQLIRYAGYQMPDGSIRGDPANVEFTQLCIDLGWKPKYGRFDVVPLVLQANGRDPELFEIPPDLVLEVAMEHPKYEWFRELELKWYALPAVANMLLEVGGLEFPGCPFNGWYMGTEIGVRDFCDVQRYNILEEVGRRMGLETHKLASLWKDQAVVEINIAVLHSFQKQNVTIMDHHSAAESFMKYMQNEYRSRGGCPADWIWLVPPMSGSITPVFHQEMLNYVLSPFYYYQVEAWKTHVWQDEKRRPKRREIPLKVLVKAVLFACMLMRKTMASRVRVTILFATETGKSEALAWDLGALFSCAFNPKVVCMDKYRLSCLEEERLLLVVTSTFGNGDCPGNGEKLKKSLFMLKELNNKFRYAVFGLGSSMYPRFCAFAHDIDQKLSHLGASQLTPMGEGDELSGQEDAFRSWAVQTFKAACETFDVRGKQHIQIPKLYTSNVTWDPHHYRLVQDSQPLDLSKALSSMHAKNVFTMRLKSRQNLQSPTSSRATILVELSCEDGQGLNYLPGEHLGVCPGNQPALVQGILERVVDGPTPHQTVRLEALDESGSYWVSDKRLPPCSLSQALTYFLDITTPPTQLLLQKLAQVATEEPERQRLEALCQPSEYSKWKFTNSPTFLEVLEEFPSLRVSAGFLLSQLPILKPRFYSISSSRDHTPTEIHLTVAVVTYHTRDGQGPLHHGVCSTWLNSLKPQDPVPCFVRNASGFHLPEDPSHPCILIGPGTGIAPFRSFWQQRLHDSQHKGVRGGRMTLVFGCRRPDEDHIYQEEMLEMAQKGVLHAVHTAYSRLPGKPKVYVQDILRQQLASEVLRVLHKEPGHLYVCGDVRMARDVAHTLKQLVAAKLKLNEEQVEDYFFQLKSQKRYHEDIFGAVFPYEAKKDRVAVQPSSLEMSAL
Assay type: biochemical
Procedure: Measurement of Inducible NO-synthase Activity
The assay is performed in 96-well microliter F-plates (Greiner, Frickenhausen, FRG) in a total volume of 100 μl in the presence of 100 nM calmodulin, 226 μM CaCl2, 477 μM MgCl2, 5 μM flavin-adenine-dinucleotide (FAD), 5 μM flavin mononucleotide (FMN), 0.1 mM NADPH, 7 mM glutathione, 10 μM BH4 and […] pH 7.2. Arginine concentrations are 0.1 μM for enzyme inhibition experiments. 150000 dpm of [^3H]arginine are added to the assay mixture. Enzyme reaction is started by the addition of 4 μg of a crude cytosolic fraction containing human inducible NO-synthase and the reaction mixture is incubated for 45 to 60 min at 37° C. Enzyme reaction is stopped by adding 10 μl of 2M MES-buffer pH 5.0. 50 μl of the incubation mixture are transferred into a MADP N65 filtration microtiter plate (Millipore, Eschborn, FRG) containing already 50 μl of AG-50W-X8 cation exchange resin (Biorad, München, FRG). The resin in the Na loaded form is pre-equilibrated in water and 70 μl (corresponding to 50 μl dry beads) are pipetted under heavy stirring with a 8 channel pipette into the filtration plate. After pipetting 50 μl of the enzyme reaction mixture onto the filtration plates, the plates are placed on a filtration manifold (Porvair, Shepperton, UK) and the flow through is collected in Pico scintillation plates (Packard, Meriden, Conn.). The resin in the filtration plates is washed with 75 μl of water (1×50 μl and 1×25 μl) which is also collected in the same plate as the sample. The total flow through of 125 μl is mixed with 175 μl of Microscint-40 scintillation cocktail (Packard) and the scintillation plate is sealed with TopSeal P-foil (Packard). Scintillation plates are counted in a scintillation counter.
For the measurement of inducible NO-synthase-inhibiting potencies of compounds increasing concentrations of inhibitors were included into the incubation mixture. IC50-values were calculated from the percent inhibition at given concentrations by nonlinear least square fitting.
The inhibitory values determined for the compounds according to the invention follow from the following table A, in which the compound numbers correspond to the example numbers.

Row | Compound | IC50 [nM]
1 | COc1ccnc(CCc2nc3cc4cc(Br)ccc4nc3[nH]2)c1 [compound 5, 7-Bromo-2-[2-(4-methoxypyridin-2-yl)ethyl]-3H-imidazo[4,5-b]quinoline] | 77.6
2 | COc1ccnc(CCc2nc3cc4cccc(C)c4nc3[nH]2)c1 [compound 3, 2-[2-(4-Methoxypyridin-2-yl)ethyl]-5-methyl-3H-imidazo[4,5-b]quinoline] | 135
3 | COc1ccnc(CCc2nc3cc4cc(OC)ccc4nc3[nH]2)c1 [compound 4, 7-Methoxy-2-[2-(4-methoxypyridin-2-yl)ethyl]-3H-imidazo[4,5-b]quinoline] | 102
4 | COc1ccnc(CCc2nc3cc4ccccc4nc3[nH]2)c1 [compound 1, 2-[2-(4-Methoxypyridin-2-yl)ethyl]-3H-imidazo[4,5-b]quinoline] | 89.1
5 | COc1ccnc(CCc2nc3cc4cc(C)ccc4nc3[nH]2)c1 [compound 2, 2-[2-(4-Methoxypyridin-2-yl)ethyl]-7-methyl-3H-imidazo[4,5-b]quinoline] | 117
6 | COc1ccnc(CCc2nc3cc4cc(-c5ccc(CO)cc5)ccc4nc3[nH]2)c1 [compound 6] | 363
